Paper PMC12076188 (Cancer Research Communications, 2025)
Where two headings read alike, the source gives them in different places.

Experiments:
[1] = molecular target: T1, GDP-bound HRAS WT (Homo sapiens, UniProt P01112); assay: SOS1-mediated guanine nucleotide exchange assay (TR-FRET); format: biochemical; settings: GDP-bound HRAS WT; compound pre-incubation 25°C, 60 min; read-out: IC50
T1 construct: His-tagged HRAS WT (aa 1–166); made in house; host or cells: Escherichia coli

[2] = molecular target: T2, GDP-bound NRAS WT (Homo sapiens, UniProt P01111); assay: as above; format: biochemical
T2 construct: His-tagged NRAS WT (aa 1–172); made in house; host or cells: Escherichia coli
T2 sequence (P01111 1-172): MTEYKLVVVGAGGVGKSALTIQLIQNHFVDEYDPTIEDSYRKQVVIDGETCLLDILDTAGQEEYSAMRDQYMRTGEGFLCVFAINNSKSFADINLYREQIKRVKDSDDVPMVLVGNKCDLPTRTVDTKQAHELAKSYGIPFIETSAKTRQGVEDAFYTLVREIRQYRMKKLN

[3] = molecular target: T3, GppNp-bound HRAS WT (Homo sapiens, UniProt P01112); assay: GppNp-loaded RAS and cRAF interaction assay (HTRF); format: biochemical; settings: GppNp-bound HRAS WT and cRAF RBD interaction; read-out: IC50
T3 construct: His-tagged HRAS WT (aa 1–166); made in house; host or cells: Escherichia coli
T3 sequence (P01112 1-166): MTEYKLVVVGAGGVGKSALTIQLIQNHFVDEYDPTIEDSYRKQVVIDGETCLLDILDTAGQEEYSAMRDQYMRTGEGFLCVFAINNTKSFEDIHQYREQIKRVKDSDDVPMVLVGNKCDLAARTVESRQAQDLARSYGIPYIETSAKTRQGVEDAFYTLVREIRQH

[4] = molecular target: T4, GppNp-bound NRAS WT (Homo sapiens, UniProt P01111); assay: GppNp-loaded RAS and cRAF interaction assay (HTRF); format: biochemical
T4 construct: His-tagged NRAS WT (aa 1–172); made in house; host or cells: Escherichia coli
T4 sequence (P01111 1-172): as the sequence (P01111 1-172) above

[5] = system: Ba/F3 cells carrying HRAS p.G12C; assay: Ba/F3-engineered cell line viability; format: cell-based; settings: Mus musculus, BaF3, 144 h; Ba/F3 HRAS p.G12C; 6 days of treatment; read-out: Cell viability IC50
Description: (§1) The inhibitory activity of compounds on Ba/F3-engineered cell line viability was tested by Kyinno Biotechnology. Other cell viability assays on human cancer cell lines were conducted in-house. Cells were seeded in 96-well plates and incubated overnight, followed by treatment with various concentrations of compounds or solvent control for 6 days. Cell viability was detected using either the CellTiter-Glo (CTG) luminescent cell viability assay or the CTG 3D cell viability assay (Promega) for 2D and 3D CTG assays, respectively. […] The cell density is indicated in Supplementary Table S3.

[6] = system: Ba/F3 cells carrying NRAS p.G12C; assay: Ba/F3-engineered cell line viability; format: cell-based; settings: Mus musculus, BaF3, 144 h; Ba/F3 NRAS p.G12C; 6 days of treatment; read-out: Cell viability IC50
Description: as §1

[7] = system: CR6256 PDX tumors rebounding after sotorasib treatment; assay: PDX study on tumors regrown under sotorasib; format: in vivo, mice; settings: after 63 days of 100 mg/kg sotorasib; then 100 mg/kg sotorasib, 100 mg/kg glecirasib, 50 mg/kg cetuximab or combination
[8] = system: NCI-H1373 lung cancer xenograft; assay: Cell line–derived xenograft study; format: in vivo, BALB/c-nu mice; settings: NCI-H1373 lung cancer xenograft model; single agents or combination, orally once a day
Description: Female BALB/c nude mice (CAnN.Cg-Foxn1^nu/Crl, RRID: IMSR_CRL:194) were obtained from Beijing Vital River Laboratory Animal Technology Co., Ltd. Female BALB/c-nu mice (BALB/cAnSlacNifdc-nu) were obtained from SPF (Beijing) Biotechnology Co., Ltd. Female NCG mice (NOD/ShiLtJGpt-Prkdc^em26Cd52Il2rg^em26Cd22/Gpt) were obtained from GemPharmatech. Subcutaneous tumors were induced by injecting cells in PBS containing 50% BD Matrigel (Corning) in the right flank of female BALB/c-nu mice (NCI-H1373, 5 × 10^6 cells), female BALB/c nude mice (MIA PaCa-2, 1 × 10^7 cells), or female NCG mice (NCI-H358, 5 × 10^6 cells).

T1 sequence (P01112 1-166): as the sequence (P01112 1-166) above

Q: With C=CC(=O)N1CCN(c2nc(=O)n(-c3c(C)ccnc3C(C)C)c3nc(-c4c(O)cccc4F)c(F)cc23)[C@@H](C)C1 [Sotorasib, reference compound] as the molecule, how does the IC50 [1] read?
A: Its IC50 is over 10 µM.

Q: And the IC50 ([2]; GDP-bound NRAS WT, compound pre-incubation 25°C, 60 min, read-out: IC50)?
A: The IC50 was over 10 µM.

Q: What about the IC50 [3] of the same molecule?
A: The IC50 was over 10 µM.

Q: What about the IC50 ([4]; GppNp-bound NRAS WT and cRAF RBD interaction, read-out: IC50) of the same molecule?
A: The IC50 was over 10 µM.

Q: And the IC50 [5]?
A: Its IC50 is 0.0271 µM.

Q: And the IC50 [6]?
A: The IC50 was 0.0147 µM.

Q: What about the “tumor response of rebound tumors” value [7] of the same molecule?
A: The value was “continued to grow”.

Q: For C=C(F)C(=O)N1CCN(c2nc(OC[C@@H]3CCCN3C)nc3c2CCN(c2cccc4cccc(Cl)c24)C3)C[C@@H]1CC#N [Adagrasib], which IC50 [2] is on record?
A: Its IC50 is over 10 µM.

Q: And the IC50 [4]?
A: Its IC50 is over 10 µM.

Q: With Nc1nccc(Sc2cnc(N3CCC4(CC3)Cc3ncccc3[C@H]4N)cn2)c1Cl [JAB-3312] as the molecule, how does the TGI [8] read?
A: Its TGI is 64%.
